Laboratory results published in patent US10065957B2, “Beta-lactamase inhibitors” (Novartis AG, priority 2016, dated 2018).
Converted amounts (≈) assume the structure as drawn.

What was measured:
Format in all cases: cell-based
E. coli (AmpC) = assay: microbe, parasite or virus in culture; conditions: for MIC of aztreonam with beta-lactamase inhibitor: AZ + BLI at 2 μg/mL; for Activity of Beta-Lactam 5 with beta-lactamase inhibitor: Beta-Lactam 5 + BLI at 2 μg/mL; for MIC of ceftazidime with beta-lactamase inhibitor: Ceft + BLI at 2 μg/mL; for MIC of meropenem with beta-lactamase inhibitor: Mero + BLI at 2 μg/mL
Description: (§1) MICs were determined by the broth microdilution method in accordance with Clinical and Laboratories Institute (CLSI) guidelines. In brief, fresh overnight bacterial cultures were suspended in sterile saline, and adjusted to a 0.5 McFarland turbidity standard. Bacterial suspensions were then diluted in cation adjusted Mueller-Hinton Broth (MHB II; BBL) to yield a final inoculum of approximately 5×10^5 colony-forming units (CFU)/mL. A master plate of antibiotics was prepared at a concentration equivalent to hundred-fold the highest desired final concentration in 100% dimethyl sulfoxide (DMSO). The master antibiotic plate was then diluted by serial twofold dilution with a multichannel pipette. The resulting dilution series of compounds were diluted 1:10 with sterile water or a solution of beta-lactamase inhibitor prepared at a concentration equivalent to eleven-fold the desired final concentration in deionized water leading to a 10% DMSO final concentration. A volume of 10 μL of the drug dilution series was transferred to 96-well assay plates. Assay plates were inoculated with 90 μL of bacterial suspensions and incubated at 35° C. for 20 hrs. The assay plates were read using a microtiter plate reader (Molecular Devices) at 600 nm as well as by visual observation with a reading mirror. The lowest concentration of the compound that prevented visible growth was recorded as the MIC. Performance of the assay was monitored by testing aztreonam against laboratory quality control strains in accordance with guidelines of the CLSI.
Synergy or potentiation of beta-lactam antibiotics through inhibition of Q-lactamases was assessed against an isogenic panel of E. coli strains, each expressing a unique beta-lactamase, and against clinical strains.
The gene encoding AmpC was PCR amplified from the genome of strain P. aeruginosa PAO1 (NB52019) (GenBank ID U5R279) using primer pair E252 (gccCTCGAGggcgaggccccggcggatcgc) (SEQ ID NO: 17) and E253 (tgaGAATTCtcagcgcttcagcggcacct) (SEQ ID NO: 18).
The PCR products were then digested with XhoI and EcoRI and ligated into similarly digested plasmid pAH63-pstS(BlaP). Plasmid pAH63-pstS(BlaP) is a derivative of plasmid pAH63 (J Bacteriol: 183(21): 6384-6393) made by cloning the TEM-1 (bla) promoter and signal peptide encoding region from plasmid pBAD (J Bacteriol. 1995 July 177(14):4121-30) into plasmid pAH63. This fragment was PCR amplified from pBAD using primer pair E192 (ttcaCTGCAGtgaacgttgcgaagcaacggC) (SEQ ID NO:19) and E194 (TCGAggatcctcgagagcaaaaacaggaaggcaaaatgccg) (SEQ ID NO:20), digested with PstI and BamHI and inserted into similarly digested plasmid pAH63. Therefore, expression of beta-lactamases from pAH63-pstS(BlaP) based constructs is constitutive and the signal sequence is provided to direct these proteins to the periplasm. Plasmid pAH63 based vectors are used for insertion into the genome in single copy, however, to provide higher expression levels to allow more sensitive detection of the susceptibility of compounds to the expressed beta-lactamases, the expression inserts contained in these vectors were moved to the replicative multicopy vector pBAD-Kan (J Bacteriol. 1995 July 177(14):4121-30). To accomplish this, the inserts encompassing the beta-lactamase genes, with the associated TEM promoter and signal sequences, were PCR amplified from their corresponding vectors using primer E268 (ccgTCTAGAcggatggcctttttgcgtttc) (SEQ ID NO:21) and E202 (aatcGAATTCttactgaccattaacgcccaagc) (SEQ ID NO:22) for the KPC2 construct, E204 (aatcGAATTCttaacgctgccagtgctcaatc) (SEQ ID NO:23) for the SHV-12 construct and E203 (aatcGAATTCttacagaccgtcggtgacaatc) (SEQ ID NO:24) for the CTX-M-15 construct. These fragments were then digested with XbaI and EcoRI, and each was inserted into pBAD18-kan that had been digested with the same enzymes to generate multicopy vectors expressing KPC-2, SHV-12 and CTX-M-15, respectively. […]

E. coli ATCC 25922 = assay: MIC by broth microdilution, BLI alone; conditions: Escherichia coli, ATCC25922, read-out: Minimal Inhibitory Concentrations (MIC) of selected BLIs
Description: as §1

K. pneumoniae ATCC 43816 = assay: MIC by broth microdilution, BLI alone; conditions: Klebsiella pneumoniae, ATCC43816, read-out: Minimal Inhibitory Concentrations (MIC) of selected BLIs
Description: as §1

P. aeruginosa ATCC 27853 = assay: MIC by broth microdilution, BLI alone; conditions: Pseudomonas aeruginosa, ATCC27853, read-out: Minimal Inhibitory Concentrations (MIC) of selected BLIs
Description: as §1

NC(=O)[C@@H]1CC[C@@H]2CN1C(=O)N2OS(=O)(=O)O [Avibactam]
MIC of aztreonam with beta-lactamase inhibitor (E. coli (AmpC)): ≤0.06 µg/mL
Activity of Beta-Lactam 5 with beta-lactamase inhibitor (E. coli (AmpC)): 0.125 µg/mL
MIC of ceftazidime with beta-lactamase inhibitor (E. coli (AmpC)): 0.125 µg/mL
MIC of meropenem with beta-lactamase inhibitor (E. coli (AmpC)): ≤0.06 µg/mL
MIC (E. coli ATCC 25922): 16 µg/mL (≈ 60.3 µM)
MIC (K. pneumoniae ATCC 43816): 32 µg/mL (≈ 121 µM)
MIC (P. aeruginosa ATCC 27853): > 64 µg/mL

O=C1NC[C@@H]2C[C@@H]3CN(C(=O)N3OS(=O)(=O)[O-])[C@H]12.[Na+] [Example 1, Sodium (4R,5aS,8aS)-2,8-dioxohexahydro-2H-1,4-methanopyrrolo[3,4-d][1,3]diazepin-3(4H)-yl sulfate]
MIC of aztreonam with beta-lactamase inhibitor (E. coli (AmpC)): 0.125 µg/mL
Activity of Beta-Lactam 5 with beta-lactamase inhibitor (E. coli (AmpC)): 0.25 µg/mL
MIC of ceftazidime with beta-lactamase inhibitor (E. coli (AmpC)): 0.25 µg/mL
MIC of meropenem with beta-lactamase inhibitor (E. coli (AmpC)): ≤0.06 µg/mL
MIC (E. coli ATCC 25922): > 64 µg/mL
MIC (K. pneumoniae ATCC 43816): > 64 µg/mL
MIC (P. aeruginosa ATCC 27853): > 64 µg/mL

O=C(NC1CCNCC1)[C@@H]1CC[C@@H]2CN1C(=O)N2OS(=O)(=O)O [Relebactam]
MIC of aztreonam with beta-lactamase inhibitor (E. coli (AmpC)): 0.125 µg/mL
Activity of Beta-Lactam 5 with beta-lactamase inhibitor (E. coli (AmpC)): 0.25 µg/mL
MIC of ceftazidime with beta-lactamase inhibitor (E. coli (AmpC)): 0.125 µg/mL
MIC of meropenem with beta-lactamase inhibitor (E. coli (AmpC)): ≤0.06 µg/mL
MIC (E. coli ATCC 25922): > 64 µg/mL
MIC (K. pneumoniae ATCC 43816): > 64 µg/mL
MIC (P. aeruginosa ATCC 27853): > 64 µg/mL
